{"source": "paper PMC7217877", "about": "“N-AS-triggered SPMs are direct regulators of microglia in a model of Alzheimer’s disease” (Nature Communications, 2020)", "key": {"COX2 WT": {"target": "T1, COX2 WT (Homo sapiens, UniProt P35354)", "T1 construct": "His (N); made in house", "T1 sequence (P35354 18-604)": "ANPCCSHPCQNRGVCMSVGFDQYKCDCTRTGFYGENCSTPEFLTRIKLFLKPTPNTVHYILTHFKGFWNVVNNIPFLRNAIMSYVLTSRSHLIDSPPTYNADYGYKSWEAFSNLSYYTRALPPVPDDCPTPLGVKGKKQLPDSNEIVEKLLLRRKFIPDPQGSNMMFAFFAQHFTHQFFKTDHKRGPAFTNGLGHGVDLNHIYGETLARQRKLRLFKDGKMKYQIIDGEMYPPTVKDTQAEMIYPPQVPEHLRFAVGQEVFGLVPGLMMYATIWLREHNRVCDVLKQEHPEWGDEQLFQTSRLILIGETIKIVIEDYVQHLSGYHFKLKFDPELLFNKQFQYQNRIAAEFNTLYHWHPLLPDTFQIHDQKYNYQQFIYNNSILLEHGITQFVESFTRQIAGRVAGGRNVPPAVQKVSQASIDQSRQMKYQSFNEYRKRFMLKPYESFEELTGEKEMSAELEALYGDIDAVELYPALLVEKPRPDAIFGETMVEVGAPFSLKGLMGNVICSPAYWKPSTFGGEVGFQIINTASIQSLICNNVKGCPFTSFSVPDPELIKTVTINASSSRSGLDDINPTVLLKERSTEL", "assay": "filter binding assay of [14C] N-AS to COX2", "details": "COX2 Control; 0.2 uM (20 pmol); replicates"}, "APP/PS1 mice": {"system": "APP/PS1 mice", "assay": "RNA seq of microglia from treated mice (Fig 4f-i)", "format": "in vivo, mouse", "details": "N-AS-treated vs vehicle APP/PS1", "protocol": "Transgenic mouse lines over-expressing the hAPP695swe (APP) and presenilin-1M146V (PS1) mutations were originated from GlaxoSmithKline (Harlow, UK)[32] and maintained as described previously. We purchased 5×FAD mice from Jackson Labs (Stock number. 34840-JAX). Because APP/PS1 and 5xFAD mice show sex differences in disease progression, we used only male mice. To examine possible therapeutic effect of N-AS and aspirin in APP/PS1 mice, the N-AS (30 mg kg^−1, Sigma-Aldrich, 01912) was injected daily s.c. for 8 weeks to 7-months-old APP/PS1 mice until the age of 9 months, and aspirin (2 mg kg^−1, Sigma-Aldrich, A5376)[33] was administrated orally to 7-months-old APP/PS1 mice for 8 weeks. […]\nTotal RNA was isolated in microglia derived from WT, APP/PS1, and APP/PS1 mice treated with N-AS using Trizol reagent (Invitrogen). RNA quality was assessed by Agilent 2100 bioanalyzer using the RNA 6000 Nano Chip (Agilent Technologies, Amstelveen, The Netherlands), and RNA quantification was performed using ND-2000 Spectrophotometer (Thermo Inc., DE, USA). […] Quantification was performed using the library quantification kit using a StepOne Real-Time PCR System (Life Technologies, Inc., USA). […] Then, total RNA-Seq reads were mapped using TopHat software tool in order to obtain bam file (alignment file). […]"}}, "note": "“And” between values parts separate entries of the source, which are not always exact repeats. Identical values can stand only once."}
{"smiles": "CCCCCCCCCCCCC/C=C/[C@@H](O)[C@H](CO)NC(C)=O", "note": "[N-AS, N-((2S,3R,E)-1,3-Dihydroxyoctadec-4-en-2-yl)acetamide]", "values": [{"measurement": "binding velocity (Vbinding)", "setting": "COX2 WT", "value": "0.350 nM/min and 0.395 nM/min and 0.289 nM/min"}, {"measurement": "microglial gene expression pattern (RNA seq)", "setting": "APP/PS1 mice", "value": "upregulation of several reactive microglial genes"}]}
